Measured values taken from patent publication US20080274112A1, “Nogo Receptor Antagonists” (priority 2003, published 2008).
Blank lines part the entries; values can stand above or below the molecule they belong to.

Key:
[1] = molecular target: T1, Nogo66 + sNogoR344-Fc (Rattus norvegicus, UniProt Q99M75, A303T/C287S/C43R/E284G/T53A); test: mAb/Fab inhibition of Nogo66 binding to sNogoR344-Fc (ELISA)
T1 construct: amino acid residues 26-344 of rat Nogo receptor-1; made in house
T1 sequence (Q99M75 26-344 C43R/T53A/E284G/C287S/A303T): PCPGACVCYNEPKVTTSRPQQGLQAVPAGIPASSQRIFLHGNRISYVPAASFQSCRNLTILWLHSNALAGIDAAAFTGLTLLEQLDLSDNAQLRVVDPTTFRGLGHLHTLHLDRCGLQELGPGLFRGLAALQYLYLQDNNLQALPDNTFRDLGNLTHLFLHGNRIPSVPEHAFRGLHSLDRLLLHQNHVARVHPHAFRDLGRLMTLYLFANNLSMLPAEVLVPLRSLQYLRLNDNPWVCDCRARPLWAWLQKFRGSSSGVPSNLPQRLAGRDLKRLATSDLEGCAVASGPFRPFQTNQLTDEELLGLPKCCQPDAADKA
Experimental: (§1) 0.5 μg of a soluble Nogo receptor-1 fusion protein comprising amino acid residues 26-344 of rat Nogo receptor-1 and the hinge and Fc region of the rat IgG1 molecule (sNogoR344-Fc) produced as described below was immobilized on 250 μg of protein-A- or wheatgerm agglutinin-conjugated SPA beads (Amersham Pharmacia Biotech) for 2 hours at 25° C. SPA beads coupled with Fc-sNogoR-1, anti-Nogo receptor-1 mAb and 1 μl ^125I-Nogo66 (Amersham, 2000 Ci/mmol, 1 nM) in 50 μl of the HEPES-buffered incubation medium (10 mM HEPES, pH 7.4, 0.1% bovine serum albumin, 0.1% ovalbumin, 2 mM MgCl2, 2 mM CaCl2 and protease inhibitors) was added to each sample well. After 16 hours, radioactivity was measured in quadruplicate samples using a TopCount® (Packard). IC50 values were calculated from a curve-fit analysis (FIG. 3) (PRISM, GraphPad Software, NJ). In some experiments, we also used AP-ligand conjugates (e.g. AP-Nogo66) and detected binding by monitoring alkaline phosphatase activity. We also assayed the ability of the mAbs to block binding of the ligands MAG-Fc and AP-OM-gp to Nogo receptor-1.
(§2) The calculated IC50 for Nogo66 for 7E11 and 1H2 were 400 nM and 60 nM, respectively. The data from ELISAs monitoring mAb-mediated inhibition of binding of the three ligands to Nogo receptor-1 are summarized in Table 6.
(§3) We also performed ELISA binding assays using the Fab-phage 14D5.

[2] = molecular target: polypeptide p-617 (SEQ ID NO: 1) (Rattus norvegicus, UniProt Q99M75); test: Specificity ELISA on polypeptide p-617; type: binding
From the text: To determine the specificity of the monoclonal and Fab-phage antibodies produced in Examples 1 and 2, we performed an ELISA using a panel of Nogo receptor-1 polypeptides. The panel consisted of sNogoR310-Fc (a fusion protein comprising amino acids 26-310 of rat Nogo receptor-1 and a rat Fc fragment), sNogoR344-Fc (see supra), polypeptide p-617 (SEQ ID NO: 1), polypeptide p-618 (a 19-amino acid polypeptide from the LRR7 region of rat Nogo receptor-1; FIG. 2; SEQ ID NO: 11) and polypeptides p-4 and p-5 (polypeptides from the LRR5 and LRRCT regions of Nogo receptor-1, respectively). Ovalbumin and BSA were used as controls.

[3] = molecular target: T2, MAG + sNogoR344-Fc (Rattus norvegicus, UniProt Q99M75, A303T/C287S/C43R/E284G/T53A); test: mAb/Fab inhibition of MAG binding to sNogoR344-Fc (ELISA)
T2 construct: amino acid residues 26-344 of rat Nogo receptor-1; made in house
T2 sequence (Q99M75 26-344 C43R/T53A/E284G/C287S/A303T): T1 sequence (Q99M75 26-344 C43R/T53A/E284G/C287S/A303T)
Experimental: as §1, §2, §3

[4] = molecular target: T3, OM-gp + sNogoR344-Fc (Rattus norvegicus, UniProt Q99M75, A303T/C287S/C43R/E284G/T53A); test: mAb/Fab inhibition of OM-gp binding to sNogoR344-Fc (ELISA)
T3 construct: amino acid residues 26-344 of rat Nogo receptor-1; made in house
T3 sequence (Q99M75 26-344 C43R/T53A/E284G/C287S/A303T): T1 sequence (Q99M75 26-344 C43R/T53A/E284G/C287S/A303T)
Experimental: as §1, §2, §3

[5] = system: DRG neurons; test: Neurite outgrowth assay, myelin mixed with test protein (Example 10); type: cell-based; details: P3-4 rat DRG; spotted mixed with CNS myelin
Experimental: Lab-Tek® culture slides (4 wells) were coated with 0.1 mg/ml poly-D-lysine (Sigma®). CNS myelin alone or mixed with sNogoR310, sNogoR310-Fc fusion protein, mAb 5B10 or control PBS were separately spotted as 3 μl drops. Fluorescent microspheres (Polysciences) were added to the myelin/PBS to allow later identification of the drops (Grandpre et al, Nature 403, 2000). Lab-Tek® slides were then rinsed and coated with 10 μg/ml laminin (Gibco™).
Dorsal root ganglions (DRG's) from P3-4 Sprague Dawley rat pups were dissociated with 1 mg/ml collagenase type 1 (Worthington), triturated with fire-polished Pasteur pipettes pre-plated to enrich in neuronal cells and finally plated at 23,000 cells/well on the pre-coated Labtek culture slides. The culture medium was F12 containing 5% heat inactivated donor horse serum, 5% heat inactivated fetal bovine serum and 50 ng/ml MNGF and incubated at 37° C. and 5% CO2 for 6 hours.
Slides were fixed for 20 minutes with 4% paraformaldehyde containing 20% sucrose and stained for the neuronal marker anti beta-III-tubulin (Covance TUJ1) diluted 1:500. As secondary antibody anti-mouse Alexa Fluor® 594 (Molecular Probes) was diluted 1:300 and slides were coverslipped with Gel/Mount™ (Biømeda™). 5× digital images were acquired with OpenLab™ software and analyzed by using the MetaMorph® software for quantification of neurite outgrowth.

[6] = system: 7E11; test: 7E11 binding to digest peptides of NgR1 (MS analysis); set-up: species or system murine; details: trypsin or Asp-N digest peptides
Experimental: The 7E11 binding site was further analyzed by testing trypsic peptide digests of sNgR310. […] 7E11 bound only a single tryptic digest peptide, providing additional evidence that […] binds to a single epitope on NgR1. Subsequent mass spectroscopy (MS) and sequence analyses identified the bound peptide to be […] (SEQ ID NO: 26).
The LDLSDNAQLRVVDPTT peptide (SEQ ID NO: 1) was subjected to further mapping analysis. The peptide was digested with trypsin, which yielded two major fragments, LDLSDNAQLR (SEQ ID NO: 27) and VVDPTT (SEQ ID NO: 28), and the ability of 7E11 to bind them was tested. […] Within this peptide fraction, detailed MS analysis identified several scrambled peptides that also bound 7E11, including peptides with deamination at Asn115 and Gln117, addition of Alanine at 112 or 113, or addition of Serine at 114 (Table 3).
The LDLSDNAQLRVVDPTT peptide was also digested with the endoprotease Asp-N and 7E11 binding was tested. Endoprotease Asp-N cleaved the peptide into 3 peptide fragments, L, DLS and DNAQLRVVDPTT (SEQ ID NO: 36). Of these products, 7E11 bound the DNAQLRVVDPTT peptide. Taken together, the trypsin and Asp-N cleavage data further localize the 7E11 binding epitope to the sequence shared between them, DNAQLR (SEQ ID NO: 37).

[7] = system: 7E11; test: 7E11 binding to immobilized point-mutant peptides (EC50); set-up: species or system murine
Experimental: To verify these contact points, several peptides containing point mutations within the LDLSDNAQLR sequence (SEQ ID NO: 27) were generated and tested for 7E11 binding. The peptides were immobilized on a MaxiSorp™ plate (Nunc®) and serial dilutions of […] were applied. […] The most significant change in EC50 was observed when Arg119 was mutated to Alanine.

[8] = system: Nogo receptor-1; test: Blocking of ligand binding to Nogo receptor-1 by soluble receptors

inhibition of binding of Nogo66 to sNogoR344-Fc [1]: inhibited binding
binding to polypeptide p-617 [2]: specifically bound
inhibition of binding of MAG to sNogoR344-Fc [3]: inhibited binding
inhibition of binding of OM-gp to sNogoR344-Fc [4]: inhibited binding
Molecule: 5B10: murine monoclonal anti-Nogo receptor-1 antibody, IgG1 kappa, ATCC PTA-4588; immunogen rat Nogo receptor-1 residues 110-125
protection from myelin-mediated inhibition of neurite outgrowth [5]: protected

increase of EC50 versus original peptide [7]: 30 fold
Molecule: LDLSDNAALRVVDPTT [Q117A]

binding by 7E11 [6]: bound
Molecule: LDLSDNAQLR

Continued, molecule first:

Molecule: AAAFGLTLLEQLDLSDNAQLR (AAAFTGLTLLEQLDLSDNAQLR) [tryptic digest peptide of sNgR310]
binding by 7E11 [6]: bound

Molecule: DNAQLRVVDPTT
binding by 7E11 [6]: bound

Molecule: LDLSDNAQLHVVDPTT [R119H]
increase of EC50 versus original peptide [7]: 25 fold

B1: sNogoR344: soluble Nogo receptor-1 polypeptide, residues 26-344 or 27-344 (protein, listed as Rattus sp.)
chain: T1 sequence (Q99M75 26-344 C43R/T53A/E284G/C287S/A303T)
blocking of binding of NogoA, NogoB, NogoC, MAG and OM-gp to Nogo receptor-1 [8]: block the binding
